Reference: ChEMBL document CHEMBL6092130, “Recent advances in the treatment of gout with NLRP3 inflammasome inhibitors” (Bioorg Med Chem, 2024)
Values belong to the compound of their own block, whether it stands above or below them.

Tests used:
[1] = Inhibition of NLRP3 inflammasome activation in LPS-induced mouse RAW264.7 cells assessed as downregulation of NLRP3 expression; format: cell-based
[2] = Antiinflammatory activity against LPS-stimulated human MDM cells assessed as inhibition of LPS-induced IL-1beta level at 20 uM incubated for 24 hrs by ELISA relative to control; format: functional; parameters: scale not given: the % may be the effect or the level left
[3] = Inhibition of NLRP3 inflammasome activation in LPS-induced mouse RAW264.7 cells assessed as reduction of NLRP3 expression by Western blot analysis; format: cell-based
[4] = Cytotoxicity against human PBMC cells assessed as reduction in cell viability by CellTiter Glo assay; format: functional, cell-based
RAW264.7 = assay: Antiinflammatory activity against mouse RAW264.7 cells assessed as decrease in LPS-induced IL-1beta level at 20 uM incubated for 24 hrs by ELISA relative to control; format: functional; parameters: scale not given: the % may be the effect or the level left
[5] = Oral bioavailability in human; format: ADME, organism-based; details: in vivo
[6] = Inhibition of NLRP3 inflammasome in mouse J774.A1 cells assessed as inhibition of IL-1 beta secretion; format: cell-based

IC50 [1]: 0.45 µM
Structure (SMILES): COc1ccc(CNS(=O)(=O)c2ccc(CCNC(=O)c3cc(Cl)ccc3OC)cc2)cc1

IC50 [3]: 13 µM
Structure (SMILES): COc1ccc(Cl)cc1C(=O)NCCc1ccc(S(=O)(=O)NC(=O)NC2CCCCC2)cc1 [GLYBURIDE]

IC50 [1]: 0.147 µM
Structure (SMILES): CNS(=O)(=O)c1ccc(CCNC(=O)c2ccccc2)cc1

IC50 [6]: 8.45 µM
Structure (SMILES): COc1ccc(Cl)cc1C(=O)NCCc1ccc(S(=O)(=O)NO)cc1

IC50 [1]: 0.55 µM
Structure (SMILES): CCCCN(CCCC)S(=O)(=O)c1ccc(CCNC(=O)c2cc(Cl)ccc2OC)cc1

The remaining lines, values behind:

Structure (SMILES): CS(=O)(=O)CCC#N
Activity [2]: 60%

Structure (SMILES): C=C1C(=O)[C@]23[C@H](O)[C@H]1CC[C@H]2[C@@]12CO[C@]3(O)[C@@H](O)[C@@H]1C(C)(C)CC[C@@H]2O [ORIDONIN]
IC50 [4]: 5.18 µM

Structure (SMILES): CC(C)(O)c1coc(S(=O)(=O)NC(=O)Nc2c3c(cc4c2CCC4)CCC3)c1
IC50 [1]: 0.0075 µM

Structure (SMILES): CC(C)C[C@H](NC(=O)CNC(=O)c1cc(Cl)ccc1Cl)B(O)O [IXAZOMIB]
Activity (RAW264.7): 77%

Structure (SMILES): CC(C)C[C@H](NC(=O)[C@H](Cc1ccccc1)NC(=O)c1c(F)cccc1F)B(O)O
bioavailability [5]: 48.1%
